{
  "source": "patent US9199200B2",
  "about": "“Submerged membrane bioreactor system and biological methods for removing bisphenol compounds from municipal wastewater” (Centre de Recherche Industrielle de Québec (CRIQ), priority 2010, dated 2015)",
  "key": {"[1]": {"assay": "Sorption time course of BPA on activated and inactivated sludge in shake flasks", "type": "physicochemical", "details": "average over the first 30 min; initial 5.0 or 10 mg/L; 15 g TSS/L", "procedure": "To elucidate the plausible mechanisms of the biological removal of the bisphenol compounds, the removal of BPA was tested (adsorption on the biomass versus biological oxidation), and additional experiments are carried out in Erlenmeyer shake flasks containing either activated sludge or inactivated sludge in the presence of BPA. The sludge used for the tests is withdrawn from the SMBR unit. Prior to BPA addition in activated sludge sample, sludge is initially centrifuged at 8000 rpm at 4° C. for 10 min and softly washed. The inactivated sludge is prepared by subjecting sludge samples to a sterilization by adding 1.0 mL HgSO4 (20 g/L) to 200 mL of sludge. Then, the sterilized and centrifuged sample sludge is placed in conical flasks and shaken at 150 rpm at 22±2° C. for 2 h, and then centrifuged at 8000 rpm at 4° C. for 10 min. Different concentrations of BPA (0.45 to 18.2 mg/L) are added in the same mass of sludge (3.0 g of sludge diluted to 200 mL with milli-Q water). […] The flasks are shaken at 150 rpm at 22±2° C., pH=7±0.5 for 24 h and samples are taken in regular time intervals, and the amount of BPA adsorbed is determined by measuring the residual BPA concentrations in solution The same assay is carried out using inactivated sludge. […]"}, "[2]": {"system": "biomass (activated sludge) of the SMBR", "assay": "COD removal in submerged membrane bioreactor (SMBR) fed synthetic wastewater contaminated by BPA", "excerpt": "According to another embodiment, a submerged membrane bioreactor system (SMBR) operated at the laboratory scale is represented in the diagram of FIG. 1. The pilot unit is comprised of ZEEWEED® (ZW-1) hollow-fibre membranes of 0.04 μm rated pore diameter and 0.047 m^2 total filtering surface area, assembled vertically. The membrane unit is provided by Zenon Environmental & Co (Oakville, ON, Canada). ZW-1 membrane, whose module contains 80 fibres of 20 cm length, may be either operated in closed loop or in continuous mode of operation, through a stirred 6 L tank of 19.1 cm water high. Filtration may be achieved by drawing water through the membrane under a slight vacuum generated by a peristaltic pump (11) and measured by a manometer (10) located just after the membrane on the aspiration line. Air may be supplied through an extended aeration tube located inside the membrane module and also used to attach it vertically. The filtration of the effluent may be carried out intermittently (5 min of filtration followed by 30 s of pause) but air should be continuously injected in the SMBR system. An oxygen probe (5) may be connected to an oxymeter and installed in the bioreactor tank to measure dissolved oxygen concentration. The air flow-rate may be measured using a flow-meter (17). pH and temperature can also be measured during the experiments by using pH (8) and temperature (9) probes installed in the bioreactor tank.\nAccording to some embodiments of the present invention, the SMBR system may be seeded by activated sludge collected from any suitable municipal wastewater treatment plant. The first step consists in developing the biomass by using a synthetic wastewater of a known composition carried out according known techniques. For example, the initial biomass may be developed using glucose as an organic substrate (400-2000 mg/L of COD), although any other suitable sources of carbon may be employed as organic substrates, for example sodium acetate or peptone. The biomass is developed over a period of time suitable to obtain a sufficiently concentrated biomass. […]\nAccording to an embodiment, the biomass may be acclimatized in oxidizing the bisphenol compound over of period of time sufficient to obtain a biomass capable of oxidizing said bisphenol compound. […] It is worth noting that, during both successive stages (biomass development and biomass acclimatization), the performance of the SMBR was evaluated by the measurements of COD. […]\nDuring the experimental work, samples are taken for different analyses. […] BPA is also analyzed using liquid chromatography mass spectrometer (LC-MS/MS) after extraction and purification on a solid phase. […]"}},
  "data": [
    {"smiles": "CC(C)(c1ccc(O)cc1)c1ccc(O)cc1", "note": "[BPA, 2,2-Bis(4-hydroxyphenyl)propane]", "values": [
      {"measurement": "BPA removed by physical sorption", "setting": "[1]", "value": 69, "unit": "%"},
      {"measurement": "BPA concentration at the entry of the SMBR from which foam is observed in the mixed liquor (perturbation in the bacterial activity)", "setting": "[2]; 14 g VSS/L, HRT 6 h", "value": "≥ 25", "unit": "mg/L"},
      {"measurement": "Volumetric loading at which BPA became toxic for the bacterial activity", "setting": "[2]; SMBR, around 5.0 mg/L BPA", "value": 21.6, "unit": "g BPA/m^3/d"},
      {"measurement": "Limit of toxicity, organic loading", "setting": "[2]; SMBR, at 25 mg BPA/L", "value": 7.71, "unit": "g BPA/kg VSS/d"},
      {"measurement": "Limit of toxicity, volumetric loading", "setting": "[2]; SMBR, at 25 mg BPA/L", "value": "about 108 g BPA/m^3/d"}
    ]}
  ]
}
